Consider 28 compounds from patent US9540323B2 (BRISTOL-MYERS SQUIBB COMPANY, priority 2012, dated 2017).

For test [1], the system named is human platelet rich plasma (PRP). Briefly: ADP induced platelet aggregation assay.
Method: The ability of P2Y1 antagonists covered in the present invention to inhibit platelet aggregation induced by 10 μM ADP was tested using human platelet rich plasma (PRP) as described in Platelet Protocols: Research and Clinical Laboratory Procedures (White, M. M. et al., Academic Press (1999)). Human blood was collected in 30 μM (final concentration in blood) argatroban (GSK) as the anticoagulant at a ratio of 1 mL per 9 mL of blood. The PRP was isolated by centrifugation at 170 g for 12 minutes. The platelet poor plasma (PPP) was used as the blank for optical aggregometry. Compounds of the present invention in DMSO solution was preincubated with 250 μL PRP at 37° C. for 1 minute with stirring speed of 1000 rpm. Aggregation was initiated by addition of 2.5 μL of 1 mM ADP (Chrono-log, Havertown, Pa.) for a final ADP concentration of 10 μM. Platelet aggregation was monitored using Optical Aggregometer (Chrono-log, Havertown, Pa.) and the area under the curve (AUC) at 5 minute was measured. IC50 was calculated using vehicle control as 0% inhibition.
Test [2] concerns the target cloned human P2Y1 receptors (Homo sapiens (Human), UniProt P47900). As to the kind of experiment: Binding Assay B - Scintillation Proximity Assay (SPA) for P2Y1 binding, [33P] 2MeS-ADP. Particulars: SPA, 0.3 nM [33P] 2MeS-ADP, Cheng-Prusoff; read-out: P2Y1 Ki (nM) using binding assay B. How it is done:
Binding Assay B—Scintillation Proximity Assay (SPA) for P2Y1 Binding
A SPA membrane binding assay was used to identify inhibitors of [^33P] […] Reactions were allowed to proceed to completion at room temperature for 1 hour followed by centrifugation of the plate for 5 min. About 40 μL of the aqueous solution was aspirated. Plates were sealed and the [^33P]
In general terms: In a scintillation proximity assay essentially only radioactivity close to the scintillant gives light.

Setting [3] is: Homo sapiens, Platelet, 5 min, read-out: PA IC50 (μM) @ 10 μM ADP, human PRP, 10 μM ADP, AUC at 5 minute.
Where [4] appears, read: read-out: PA IC50 (μM) @ 10 μM ADP, human PRP, 10 μM ADP, AUC at 5 minute.

Where a name gives a salt, the structure may show the parent alone. Read-outs that look alike come from different tables or passages of the source.

Sequence of cloned human P2Y1 receptors (P47900 whole entry): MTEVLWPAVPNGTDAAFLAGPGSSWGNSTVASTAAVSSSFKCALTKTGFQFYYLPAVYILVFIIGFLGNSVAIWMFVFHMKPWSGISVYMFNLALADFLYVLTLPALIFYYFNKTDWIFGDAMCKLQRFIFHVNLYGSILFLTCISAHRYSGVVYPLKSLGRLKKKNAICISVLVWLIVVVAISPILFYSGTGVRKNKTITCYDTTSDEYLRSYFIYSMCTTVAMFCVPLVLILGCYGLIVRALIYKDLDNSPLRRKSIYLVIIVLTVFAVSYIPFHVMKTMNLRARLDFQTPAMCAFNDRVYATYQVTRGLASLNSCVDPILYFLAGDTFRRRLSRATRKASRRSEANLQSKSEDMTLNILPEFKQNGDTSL

With `CC(C)(C)c1ccc(NC(=O)Nc2ccccc2N2CC(C)(C)c3ccccc32)cc1` [Comparator 1, reference compound], the IC50 (in general, the midpoint of a concentration-inhibition curve) in test [1] (setting [3]) was above 20 µM. The inhibitory constant (Ki) (usually a dissociation constant, usually derived from enzyme kinetics or from competition with a known ligand) in test [2] turned out to be 12.9 nM.
The matching figures for `CC1(C)CN(c2ccccc2NC(=O)Nc2ccc(OC(F)(F)F)cc2)c2ccccc21` [Comparator 2, reference compound]: above 20 µM and 8.7 nM.
Turning to `CCC1(CC)CN(c2ccccc2NC(=O)Nc2nc3ccc(F)cc3s2)c2c(O)ccc(F)c21` [Example 32, 1-(2-(3,3-Diethyl-4-fluoro-7-hydroxyindolin-1-yl)phenyl)-3-(6-fluorobenzo[d]thiazol-2-yl)urea], the half-maximal inhibitory concentration (IC50) in test [1] (setting [3]) was found to be 0.37 µM.
The same measure, in the same setting: the value for `CC1(C)CN(c2ccccc2NC(=O)Nc2ccc(OC(F)(F)F)cc2)c2c(O)ccc(-c3ccc(F)nc3)c21` [Example 115, 1-(2-(4-(6-Fluoropyridin-3-yl)-7-hydroxy-3,3-dimethylindolin-1-yl)phenyl)-3-(4-(trifluoromethoxy)phenyl) urea] was 0.31 µM; that for `COc1cncc(-c2ccc(O)c3c2C(C)(C)CN3c2ccccc2NC(=O)Nc2ccc(OC(F)(F)F)cc2)c1` [Example 118, 1-(2-(7-Hydroxy-4-(5-methoxypyridin-3-yl)-3,3-dimethylindolin-1-yl)phenyl)-3-(4-(trifluoromethoxy)phenyl) urea] was 0.6 µM.
In the case of `CC1(C)CN(c2ccccc2NC(=O)Nc2ccc(OC(F)(F)F)cc2)c2c(O)ccc(-c3ccc(Cl)cn3)c21` [Example 122, 1-(2-(4-(5-Chloropyridin-2-yl)-7-hydroxy-3,3-dimethylindolin-1-yl)phenyl)-3-(4-(trifluoromethoxy)phenyl)urea], the IC50 in test [1] (setting [3]) worked out at 0.51 µM.
On the same count and under the same terms, the value for `CC1(C)CN(c2ccccc2NC(=O)Nc2ccc(OC(F)(F)F)cc2)c2c(O)ccc(-c3nc4ccc(Cl)cc4s3)c21` [Example 136, 1-(2-(4-(6-Chlorobenzo[d]thiazol-2-yl)-7-hydroxy-3,3-dimethylindolin-1-yl)phenyl)-3-(4-(trifluoromethoxy)phenyl)urea] was 0.5 µM; that for `CC1(C)CN(c2ccccc2NC(=O)Nc2nc3ccc(F)cc3s2)c2c(O)ccc(-c3nc4ccc(Cl)cc4s3)c21` [Example 137, 1-(2-(4-(6-Chlorobenzo[d]thiazol-2-yl)-7-hydroxy-3,3-dimethylindolin-1-yl)phenyl)-3-(6-fluorobenzo[d]thiazol-2-yl)urea] was 1.06 µM; that for `CC1(C)CN(c2ccccc2NC(=O)Nc2nc3ccc(F)cc3s2)c2c(O)cc(F)c(-c3nc4cc(Cl)ccc4s3)c21` [Example 138, 1-(2-(4-(5-Chlorobenzo[d]thiazol-2-yl)-5-fluoro-7-hydroxy-3,3-dimethylindolin-1-yl)phenyl)-3-(6-fluorobenzo[d]thiazol-2-yl)urea] was 0.47 µM.
As to `CC1(C)CN(c2ccccc2NC(=O)Nc2nc3ccc(Cl)cc3s2)c2c(O)cc(F)c(-c3nc4ccc(F)cc4s3)c21` [Example 139, 1-(6-Chlorobenzo[d]thiazol-2-yl)-3-(2-(5-fluoro-4-(6-fluorobenzo[d]thiazol-2-yl)-7-hydroxy-3,3-dimethylindolin-1-yl)phenyl)urea], the IC50 in test [1] (setting [3]) came out at 0.57 µM.
Take `CC1(C)CN(c2ccccc2NC(=O)Nc2nc3ccc(F)cc3s2)c2c(O)cc(F)c(-c3ccc(Cl)s3)c21` [Example 140, 1-(2-(4-(5-Chlorothiophen-2-yl)-5-fluoro-7-hydroxy-3,3-dimethylindolin-1-yl)phenyl)-3-(6-fluorobenzo[d]thiazol-2-yl)urea]: in test [1] (setting [3]), the IC50 turned out to be 0.17 µM.
The same measure, in the same setting: the value for `CC1(C)CN(c2ccccc2NC(=O)Nc2nc3ccc(Cl)nc3s2)c2c(O)cc(F)c(-c3nc4cc(Cl)ccc4s3)c21` [Example 141, 1-(2-(4-(5-Chlorobenzo[d]thiazol-2-yl)-5-fluoro-7-hydroxy-3,3-dimethylindolin-1-yl)phenyl)-3-(5-chlorothiazolo[5,4-b]pyridin-2-yl)urea] was 0.55 µM; that for `CC1(C)CN(c2ccccc2NC(=O)Nc2ccc(OC(F)(F)F)cc2)c2c(O)cc(F)c(-c3ccc(Cl)s3)c21` [Example 142, 1-(2-(4-(5-Chlorothiophen-2-yl)-5-fluoro-7-hydroxy-3,3-dimethylindolin-1-yl)phenyl)-3-(4-(trifluoromethoxy)phenyl)urea] was 0.13 µM.
As for `CC1(C)CN(c2ccccc2NC(=O)Nc2nc3ccc(Cl)nc3s2)c2c(O)cc(F)c(-c3nc4ccc(F)cc4s3)c21` [Example 143, 1-(5-Chlorothiazolo[5,4-b]pyridin-2-yl)-3-(2-(5-fluoro-4-(6-fluorobenzo[d]thiazol-2-yl)-7-hydroxy-3,3-dimethylindolin-1-yl)phenyl)urea], the IC50 in test [1] (setting [3]) is 0.33 µM.
With `CC1(C)CN(c2ccccc2NC(=O)Nc2nc3ccc(Cl)nc3s2)c2c(O)cc(F)c(-c3ccc(Cl)s3)c21` [Example 145, 1-(5-Chlorothiazolo[5,4-b]pyridin-2-yl)-3-(2-(4-(5-chlorothiophen-2-yl)-5-fluoro-7-hydroxy-3,3-dimethylindolin-1-yl)phenyl)urea], in test [1] (setting [3]), the IC50 worked out at 0.13 µM.
In the case of `CC1(C)CN(c2ccccc2NC(=O)Nc2nc3ccc(Cl)cc3s2)c2c(O)cc(F)c(-c3nc4cc(Cl)ccc4s3)c21` [Example 156, 1-(6-Chlorobenzo[d]thiazol-2-yl)-3-(2-(4-(5-chlorobenzo[d]thiazol-2-yl)-5-fluoro-7-hydroxy-3,3-dimethylindolin-1-yl)phenyl)urea], the IC50 in test [1] (setting [3]) came out at 0.97 µM.
Still for that read-out and setting: with `CC1(C)CN(c2ccccc2NC(=O)Nc2ccc(OC(F)(F)F)cc2)c2c(O)cc(F)c(-c3ncc(Br)cn3)c21` [Example 166, 1-(2-(4-(5-Bromopyrimidin-2-yl)-5-fluoro-7-hydroxy-3,3-dimethylindolin-1-yl)phenyl)-3-(4-(trifluoromethoxy)phenyl)urea] the figure was 1.25 µM; with `CC1(C)CN(c2ccccc2NC(=O)Nc2csc(Cl)n2)c2c(O)cc(F)c(-c3nc4cc(Cl)ccc4s3)c21` [Example 167, 1-(2-(4-(5-Chlorobenzo[d]thiazol-2-yl)-5-fluoro-7-hydroxy-3,3-dimethylindolin-1-yl)phenyl)-3-(2-chlorothiazol-4-yl)urea], 0.47 µM; with `CC1(C)CN(c2ccccc2NC(=O)Nc2csc(Cl)n2)c2c(O)cc(F)c(-c3ccc(C(F)(F)F)cn3)c21` [Example 169, 1-(2-Chlorothiazol-4-yl)-3-(2-(5-fluoro-7-hydroxy-3,3-dimethyl-4-(5-(trifluoromethyl)pyridin-2-yl)indolin-1-yl)phenyl)urea], 0.1 µM.
Still for that read-out and setting: the value for `CC1(C)CN(c2ccccc2NC(=O)Nc2nc3ccc(Cl)cc3s2)c2c(O)ccc(-c3nc4cc(F)ccc4s3)c21` [Example 172, 1-(6-Chlorobenzo[d]thiazol-2-yl)-3-(2-(4-(5-fluorobenzo[d]thiazol-2-yl)-7-hydroxy-3,3-dimethylindolin-1-yl)phenyl)urea, TFA] was 0.26 µM; that for `CC1(C)CN(c2ccccc2NC(=O)Nc2ccc(OC(F)(F)F)cc2)c2c(O)c(F)cc(-c3nc4cc(Cl)ccc4s3)c21` [Example 177, 1-(2-(4-(5-Chlorobenzo[d]thiazol-2-yl)-6-fluoro-7-hydroxy-3,3-dimethylindolin-1-yl)phenyl)-3-(4-(trifluoromethoxy)phenyl)urea] was 2.3 µM.
With `CC1(C)CN(c2ccccc2NC(=O)Nc2nc3ccc(F)cc3s2)c2c(O)cc(F)c(-c3ccc(F)cc3)c21` [Example 219, 1-(2-(5-Fluoro-4-(4-fluorophenyl)-7-hydroxy-3,3-dimethylindolin-1-yl)phenyl)-3-(6-fluorobenzo[d]thiazol-2-yl)urea], in test [1] (setting [4]), the IC50 is 0.36 µM.
As to `CC1(C)CN(c2ccccc2NC(=O)Nc2ccc(OC(F)(F)F)cc2)c2c(O)cc(F)c(-c3ccc(Cl)cc3)c21` [Example 220, 1-(2-(4-(4-Chlorophenyl)-5-fluoro-7-hydroxy-3,3-dimethylindolin-1-yl)phenyl)-3-(4-(trifluoromethoxy)phenyl)urea], the IC50 in test [1] (setting [4]) was 0.24 µM.
Still for that read-out and setting: with `CC1(C)CN(c2ccccc2NC(=O)Nc2csc(Cl)n2)c2c(O)cc(F)c(-c3ccc(Cl)cc3)c21` [Example 221, 1-(2-(4-(4-Chlorophenyl)-5-fluoro-7-hydroxy-3,3-dimethylindolin-1-yl)phenyl)-3-(2-chlorothiazol-4-yl)urea] the figure was 0.13 µM.
For the compound `CC1(C)CN(c2ccccc2NC(=O)Nc2ccc(OC(F)(F)F)cc2)c2c(O)cc(F)c(-c3ccc(C(F)(F)F)cc3)c21` [Example 222, 1-(2-(5-Fluoro-7-hydroxy-3,3-dimethyl-4-(4-(trifluoromethyl)phenyl)indolin-1-yl)phenyl)-3-(4-(trifluoromethoxy)phenyl)urea], the Ki in test [2] came out at 35 nM.
On the same count and under the same terms, the value for `CC1(C)CN(c2ccccc2NC(=O)Nc2csc(C(F)(F)F)n2)c2c(O)cc(F)c(-c3ccc(Cl)cc3)c21` [Example 223, 1-(2-(4-(4-Chlorophenyl)-5-fluoro-7-hydroxy-3,3-dimethylindolin-1-yl)phenyl)-3-(2-(trifluoromethyl)thiazol-4-yl)urea] was 34.4 nM.
Take `COC(=O)c1ccc(-c2c(F)cc(O)c3c2C(C)(C)CN3c2ccccc2NC(=O)Nc2ccc(OC(F)(F)F)cc2)cc1` [Example 244, Methyl 4-(5-fluoro-7-hydroxy-3,3-dimethyl-1-(2-(3-(4-(trifluoromethoxy)phenyl)ureido)phenyl)indolin-4-yl)benzoate]: the IC50 in test [1] (setting [3]) was determined as 0.3 µM.
For the compound `CC1(C)CN(c2ccccc2NC(=O)Nc2ccc(OC(F)(F)F)cc2)c2c(O)cc(F)c(-c3cc(C(F)(F)F)n[nH]3)c21` [Example 275, 1-(2-(5-Fluoro-7-hydroxy-3,3-dimethyl 4-(3-(trifluoromethyl)-1H-pyrazol-5-yl)indolin-1-yl)phenyl)-3-(4-(trifluoromethoxy)phenyl)urea], the half-inhibitory concentration (IC50) in test [1] (setting [3]) is 5.69 µM.
